Laboratory results: US10413535B2, “Pharmaceutical compositions comprising an integrin ALPHA4 antagonist for use in treating ocular inflammatory conditions” (AXEROVISION, INC., priority 2015, dated 2019)
Entries after “also recorded” stand apart in the source; their conditions may differ.

Tests used:
[1] = system: RPMI 8866 binding to CS-1; experiment: CS-1 cell adhesion assay, RPMI 8866 cells; assay type: cell-based; settings: Homo sapiens; RPMI 8866 cells to CS-1; identical duplicate values; read-out: Inhibition of cell adhesion (IC50)
Experimental: (§1) Jurkat J6 cells (human lymphoblast cell line) were grown as a suspension culture in RPMI 1640 supplemented with FCS (10%) and glutamine (2 mM). RPMI8866 cells (human B lymphoid cell line) were grown as a suspension culture in RPMI 1640 supplemented with FCS (10%) and glutamine (2 mM). RBL-2H3 cells (rat basophilic cell line) were cultured in Eagle's MEM plus Earles salts supplemented with 2 mM L-glutamine, 1 mM sodium pyruvate, 1× non-essential amino acids, 1 mM Na pyruvate 10% heat inactivated foetal calf serum.
Polystyrene 96-well microtitre plates were coated with CS-1 (connecting segment 1, a cell attachment domain of fibronectin) at a concentration of 0.01 mg/mL in bicarbonate buffer overnight at 4° C. The solution was aspirated and the plates washed twice with PBS. The plates were then incubated at room temperature in the presence of 3% BSA for 60 min, ‘flicked’ to expel the BSA and washed twice in bicarbonate buffer. J6 or RPMI cells (as required) were labelled with the fluorescent dye BCECF-AM (10 μM and 6×10^6 cells/mL) for 10 min at 37° C. before the excess was removed by centrifugation at 500 g for 5 min and the cells resuspended at a cell concentration of 1.2×10^7 cells/mL in HBSS. Equal volumes of HBSS containing the compound of formula I (over concentration range 19.0 pM to 5 μM) and cells were added to the CS-1 coated plates. […] The plates were counted in a Wallac Viktor.

[2] = system: C57BL/6 mice subjected to desiccating stress; experiment: Corneal OGD staining in murine desiccating stress model; assay type: in vivo, mouse
Experimental: Female C57BL/6 mice, aged 6 to 8 weeks, were subjected to DS for 5 days (DS5) as described previously (de Paiva et al., 2006b; Niederkorn et al., 2006). Topical bilateral treatment with 1 eye drop per eye (2 μL volume) or subcutaneous injection (4 μL volume), 2 times per day, was initiated on day 1 concurrently with DS and continued through day 4. Treatment with the compound of formula I or dexamethasone phosphate 0.1% was compared to correspondingly treated vehicle controls. Mice were randomized to receive one of the test articles. Control mice were kept in a non-stressed (NS) environment maintained at 50-75% relative humidity without exposure to airflow or scopolamine and were not treated with test or control article. Treatment effects were assessed on corneal staining with Oregon Green Dextran (OGD); expression of inflammatory markers in ocular surface tissues by real time PCR; cell population analysis in draining cervical lymph nodes by FACS analysis; conjunctival T cell infiltration by immunohistochemistry.
On the morning of the 5th day, mice received one s.c. dose of scopolamine. Two hours later corneal staining was assessed using Oregon Green Dextran (OGD-488), which is a conjugated fluorescent dye of a 70 kDa molecular size (Invitrogen-Molecular Probes) as previously described (de Paiva et al., 2006b). The procedure consisted of instillation of 0.5 μL of OGD on the cornea using a glass capillary pipette, 1 minute before euthanasia. Mice were euthanized by inhalation of isoflurane gas followed by cervical dislocation. Eyes were then rinsed with 2 mL of BSS. Excess liquid was carefully blotted from the ocular surface with filter papers without touching the cornea. Digital pictures of both eyes were taken under 470 nm excitation and 488 nm emission wave lengths using a Nikon SMZ-1500 stereo microscope, with an exposure time of 2 seconds. Both eyes from each animal were evaluated; the right eye always first followed by the left eye. The mean intensity in the central cornea was evaluated from digital images using NIS Elements (version 3.0) by placing a fixed region of interest (a 2-mm diameter circle) on the central cornea. The mean intensity of the fluorescence was read by the software and stored in a database (Excel, Microsoft). This fluorescence measurement in the central ring was done independently by 2 masked observers, for each mouse eye. By the conclusion of the experiment, results were averaged from both observers using all data collected during all study weeks (Excel, Microsoft). Results are presented as geometric mean±95% confidence interval of gray levels.
Due to skewed distribution of OGD data, the analysis was done on the log 10 scale to make the data more normally distributed. Log 10 OGD data was averaged across two observers and the left and right eyes. The mixed effects ANOVA model included treatment group as a fixed effect and week as a random effect. 95% and 99% confidence intervals were constructed for the disease (5 day DS vs untreated group kept in separate vivarium) and compound treatment effects (treatment vs vehicle). As these comparisons were all pre-planned (comparing each treatment to its vehicle group), no adjustment was made for multiplicity. […] T cell density was calculated for each section and averaged across sections for each animal. […]

α4β1-VCAM-1 = target: T1, α4β1-VCAM-1 (Homo sapiens, UniProt P05556+P13612); experiment: VCAM cell adhesion assay, Jurkat J6 cells; assay type: cell-based; settings: J6 cells to VCAM-1; read-out: Inhibition of cell adhesion (IC50)
T1 construct: characterized in human J6 cells which express VLA-4; endogenous in cells; host or cells: Jurkat J6 cells (human lymphoblast cell line)
T1 sequence (P13612 34-1032): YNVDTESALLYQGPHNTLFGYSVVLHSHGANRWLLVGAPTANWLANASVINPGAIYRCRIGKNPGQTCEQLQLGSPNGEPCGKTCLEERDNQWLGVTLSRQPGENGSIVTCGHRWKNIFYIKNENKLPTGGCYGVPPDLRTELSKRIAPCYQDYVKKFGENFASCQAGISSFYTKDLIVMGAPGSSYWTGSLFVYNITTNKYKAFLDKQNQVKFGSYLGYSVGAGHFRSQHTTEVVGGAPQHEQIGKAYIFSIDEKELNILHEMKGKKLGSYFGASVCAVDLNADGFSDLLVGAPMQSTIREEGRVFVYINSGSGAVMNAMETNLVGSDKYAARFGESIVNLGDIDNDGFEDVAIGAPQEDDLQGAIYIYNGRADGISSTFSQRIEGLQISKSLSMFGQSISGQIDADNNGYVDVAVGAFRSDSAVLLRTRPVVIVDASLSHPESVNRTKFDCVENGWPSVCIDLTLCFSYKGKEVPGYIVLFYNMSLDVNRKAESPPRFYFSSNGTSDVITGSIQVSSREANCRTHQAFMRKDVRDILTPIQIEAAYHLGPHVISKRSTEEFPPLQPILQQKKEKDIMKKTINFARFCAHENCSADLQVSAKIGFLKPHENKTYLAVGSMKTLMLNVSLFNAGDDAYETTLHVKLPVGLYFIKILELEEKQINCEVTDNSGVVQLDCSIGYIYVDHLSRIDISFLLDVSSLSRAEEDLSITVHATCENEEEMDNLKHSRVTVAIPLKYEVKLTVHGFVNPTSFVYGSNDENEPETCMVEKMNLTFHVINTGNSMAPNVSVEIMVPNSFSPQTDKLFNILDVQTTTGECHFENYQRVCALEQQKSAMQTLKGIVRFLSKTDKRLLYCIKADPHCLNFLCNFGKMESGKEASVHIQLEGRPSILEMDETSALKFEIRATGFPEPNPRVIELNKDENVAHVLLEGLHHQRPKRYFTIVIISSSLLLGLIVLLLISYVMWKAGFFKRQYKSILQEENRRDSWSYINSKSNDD
T1 sequence (P05556 21-798): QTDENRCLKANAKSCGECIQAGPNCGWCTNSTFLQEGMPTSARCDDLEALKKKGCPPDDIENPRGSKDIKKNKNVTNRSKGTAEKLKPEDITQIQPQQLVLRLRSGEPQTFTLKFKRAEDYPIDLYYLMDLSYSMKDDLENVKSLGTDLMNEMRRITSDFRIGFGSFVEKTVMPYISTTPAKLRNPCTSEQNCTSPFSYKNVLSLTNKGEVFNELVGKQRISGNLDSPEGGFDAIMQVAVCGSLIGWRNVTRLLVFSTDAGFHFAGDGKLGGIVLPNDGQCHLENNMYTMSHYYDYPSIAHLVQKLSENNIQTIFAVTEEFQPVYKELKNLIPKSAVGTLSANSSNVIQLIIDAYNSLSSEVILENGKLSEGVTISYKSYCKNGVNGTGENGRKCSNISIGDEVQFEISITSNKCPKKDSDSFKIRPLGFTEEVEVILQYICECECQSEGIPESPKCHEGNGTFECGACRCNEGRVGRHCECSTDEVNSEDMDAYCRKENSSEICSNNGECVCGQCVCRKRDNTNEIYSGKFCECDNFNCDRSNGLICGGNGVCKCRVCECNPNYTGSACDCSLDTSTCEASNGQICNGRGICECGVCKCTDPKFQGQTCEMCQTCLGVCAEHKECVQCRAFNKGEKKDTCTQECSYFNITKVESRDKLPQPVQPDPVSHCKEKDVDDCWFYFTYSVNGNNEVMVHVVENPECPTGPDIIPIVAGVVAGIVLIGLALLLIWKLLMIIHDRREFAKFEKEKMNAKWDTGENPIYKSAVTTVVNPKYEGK
Experimental: as §1
Polystyrene 96-well microtitre plates were coated with IgG at a concentration of 0.05 mg/mL in bicarbonate buffer for 2 hours at 37° C. The solution was aspirated and the plates washed twice with PBS. The plates were then incubated overnight at 4° C. with a 1:4000 dilution of VCAM-1 of 3% BSA in PBS. Prior to use the VCAM-1 was aspirated and the plates washed twice with PBS.
J6 or RPMI cells (as required) were labelled with the fluorescent dye BCECF-AM (10 μM and 6×10^6 cells/mL) for 10 min at 37° C. before the excess was removed by centrifugation at 500 g for 5 min and the cells resuspended at a cell concentration of 1.2×10^7 cells/mL in HBSS. Equal volumes HBSS containing the compound of formula I (over concentration range 38.1 pM to 10 μM) and cells were added to the VCAM-1 coated plates. […] The plates were counted in a Wallac Viktor.

Structure (SMILES): Cc1ccccc1OCC(=O)N[C@@H](CC(C)C)C(=O)N[C@@H](Cc1ccc(OC(=O)N2CCC(C(N)=O)CC2)cc1)C(=O)O [GW559090, (2S)-3-[4-({[4-(Aminocarbonyl)-1-piperidinyl]carbonyl}oxy)phenyl]-2-[((2S)-4-methyl-2-{[2-(2-methylphenoxy)acetyl]amino}pentanoyl)amino]propanoic acid]
- IC50 [1]: 24.5 nM
- OGD intensity score (corneal barrier disruption) ([2]; subcutaneous 120 μg 2 times per day, 5 days DS): not observed
- OGD intensity score (corneal staining / corneal barrier disruption) ([2]; topical bilateral 2 times per day, 5 days DS, vs vehicle (GW559090 1-30 mg/mL; Dex 0.1%), listed as compound of formula I): significant decrease; also recorded: significantly decreased; also recorded: dose-dependently prevents
- Most efficacious concentration on OGD intensity score ([2]; topical, 1 to 30 mg/mL investigated): 30 mg/mL
- IC50 (α4β1-VCAM-1): 7.72 nM
